{"source": "patent US20090275503A1", "about": "“DIASTEREOMERIC PEPTIDES FOR MODULATING T CELL IMMUNITY” (Yeda Research and Developent Co., Ltd. at the Weizman …, priority 2005, published 2009)", "test_system": "TCR", "test": "Fluorescence microscopy: co-localization and fluorescence energy transfer with TCR on activated A2b T cells", "type": "binding, rat", "protocol": "Activated A2b T cells (van Eden et al., 1988) (10^5 cells/sample) were incubated in 100 μl of PBS containing Para-formaldehyde 4% for 15 min on ice. The samples were then washed with cold PBS and centrifuged for 7 min at 1100 rpm. PBS containing BSA 1% was then added at room temperature to prevent non-specific binding. After 30 min FITC-labeled antibody against TCR was added at dilution of 1:100 and incubated for 2.5 hr. For co-localization of TCR with the peptide, Rhodamine 2D-CP was added at a final concentration of 1 μM (stock in DMSO) and incubated for 5 min. Sample were then washed once with PBS and loaded on a microscope slide.\nThe cells were then observed under a fluorescent confocal microscope. […] Fluorescence data was collected from 505-525 nm. […] Fluorescence data was collected from 560 nm and up.\nFluorescence energy transfer between the FITC (donor) and rhodamine (acceptor) was detected as an increase in FITC fluorescence in an area where the rhodamine probe was bleached. […] To verify that the increase in FITC fluorescence is not due to auto fluorescence, bleaching was performed using the 488 nm laser first and only then at 543 nm. […]\nTo confirm these co-localization results, the inventors performed fluorescence energy transfer experiments between Rhodamine 2D-CP and αTCR-FITC. […] To rule out auto-fluorescence as a source of increased signal in the […] range, two controls were used. […]", "note": "Non-standard residues stand in square brackets, D forms with d. No end group written: not given here."}
{"sequence": "GLRILLLKV [2D-CP] (GL[dR]ILLL[dK]V-NH2; also: rhodamine label, position not given here) [CP diastereomer]", "values": [{"measurement": "Co-localization with the TCR on the T-cell membrane", "setting": "rhodamine-labeled peptide 1 μM, αTCR-FITC, activated A2b T cells", "result": "co-localizes with the TCR"}, {"measurement": "Fluorescence energy transfer between rhodamine peptide and αTCR-FITC after bleaching at 543 nm", "setting": "rhodamine-labeled peptide, point bleach 6 sec", "result": "significant increase in the fluorescence of the αTCR-FITC"}]}
